Data as given in US9745291B2, “PRMT5 inhibitors containing a dihydro- or tetrahydroisoquinoline and uses thereof” (Epizyme, Inc., priority 2012, dated 2017).
Like-named read-outs stand apart in the source and are kept apart here.

Columns and labels:
PRMT5/MEP50 = PRMT5/MEP50 (Homo sapiens (Human), UniProt O14744); assay: PRMT5 Biochemical Assay (PRMT5/MEP50 enzyme assay on peptide substrate, 3H-SAM Flashplate); details: PRMT5 biochemical assay; read-out: Biochemical IC50
[1] = tested on: symmetric di-methyl arginine in Z-138 cells; assay: Z-138 Methylation Assay (In Cell Western for symmetric di-methyl arginine and DNA content); type: cell-based; details: read-out: ICW EC50
Z-138 cell line = assay: Z-138 Proliferation Assay (Cell Titer Glo, 5 days); type: cell-based; details: Z-138 cells
Method in brief: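 Z-138 cells at 10,000 cells/ml in RPMI 1640 with 10% heat-inactivated FBS treated with nine-point 3-fold dilutions, top final concentration 20 μM, 0.2% DMSO, for 5 days at 37° C, 5% CO2. Viability by Cell Titer Glo ATP luminescence; 50% inhibition concentration from 4-parameter fit.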

[2] = Homo sapiens, Z-138, Z-138 cells

Sequence of PRMT5/MEP50 (O14744 other isoform, or with tags, fused parts or gaps): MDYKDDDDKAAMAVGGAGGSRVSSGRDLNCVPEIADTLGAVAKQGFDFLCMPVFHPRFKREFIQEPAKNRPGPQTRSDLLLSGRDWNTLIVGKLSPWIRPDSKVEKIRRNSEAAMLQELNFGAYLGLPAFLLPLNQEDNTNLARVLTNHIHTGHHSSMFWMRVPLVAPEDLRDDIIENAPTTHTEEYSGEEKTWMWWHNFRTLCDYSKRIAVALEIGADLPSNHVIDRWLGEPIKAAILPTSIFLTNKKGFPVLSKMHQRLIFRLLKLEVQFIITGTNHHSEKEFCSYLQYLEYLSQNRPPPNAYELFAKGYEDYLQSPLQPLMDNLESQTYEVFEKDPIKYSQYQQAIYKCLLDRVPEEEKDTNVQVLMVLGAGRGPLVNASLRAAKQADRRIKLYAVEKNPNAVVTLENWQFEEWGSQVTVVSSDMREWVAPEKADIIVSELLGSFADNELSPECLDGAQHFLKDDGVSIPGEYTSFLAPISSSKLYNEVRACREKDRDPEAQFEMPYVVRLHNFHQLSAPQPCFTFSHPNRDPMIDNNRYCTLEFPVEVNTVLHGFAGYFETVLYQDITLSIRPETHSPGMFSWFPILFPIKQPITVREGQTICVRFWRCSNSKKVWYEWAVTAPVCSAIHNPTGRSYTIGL
Sequence of PRMT5/MEP50 (Q9BQA1 other isoform, or with tags, fused parts or gaps partner): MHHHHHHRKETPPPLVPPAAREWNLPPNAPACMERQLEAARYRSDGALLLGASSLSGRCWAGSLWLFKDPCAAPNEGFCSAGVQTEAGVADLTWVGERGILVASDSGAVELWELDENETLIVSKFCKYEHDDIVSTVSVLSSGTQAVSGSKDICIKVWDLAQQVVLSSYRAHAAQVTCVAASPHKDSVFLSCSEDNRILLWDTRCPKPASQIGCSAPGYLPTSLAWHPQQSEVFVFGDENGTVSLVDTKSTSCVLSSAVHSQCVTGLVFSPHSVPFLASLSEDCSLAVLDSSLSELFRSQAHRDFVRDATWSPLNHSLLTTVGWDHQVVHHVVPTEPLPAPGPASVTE

IC50 (PRMT5/MEP50) [nM] | EC50 [1, 2] [nM] | Compound | EC50 (Z-138 cell line; Homo sapiens, Z-138, 120 h) [nM] | EC50 ([1]; Z-138 cells) [nM] | EC50 (Z-138 cell line) [nM]
< 100 | < 100 | CN1CCN(c2cccc(OCC(=O)NC[C@@H](O)CN3CCc4ccccc4C3)c2S(=O)(=O)N(C)C)CC1 [Compound 275] | < 100 |  | 
< 100 | < 100 | CC1CN(c2cccc(OCC(=O)NC[C@@H](O)CN3CCc4ccccc4C3)c2S(=O)(=O)N(C)C)CCN1 (stereo partly drawn) [Compound 276] | < 100 |  | 
< 100 | < 100 | CCN1CCN(c2cccc(OCC(=O)NC[C@@H](O)CN3CCc4ccccc4C3)c2S(=O)(=O)N(C)C)CC1 [Compound 277] | < 100 |  | 

Continued, compound first:

Compound | IC50 (PRMT5/MEP50) [nM] | EC50 [1, 2] [nM] | EC50 (Z-138 cell line; Homo sapiens, Z-138, 120 h) [nM] | EC50 ([1]; Z-138 cells) [nM] | EC50 (Z-138 cell line) [nM]
CN(C)C1CCN(S(=O)(=O)c2ccccc2OCC(=O)NC[C@@H](O)CN2CCc3ccccc3C2)C1 (stereo partly drawn) [Compound 273] | < 100 | 101 to 1000 | 10000 to 50000 |  | 
CN1CC[C@H](CN(C)S(=O)(=O)c2ccccc2OCC(=O)NC[C@@H](O)CN2CCc3ccccc3C2)C1 [Compound 274] | < 100 | < 100 | 101 to 1000 |  | 
CN(C)S(=O)(=O)c1c(OCC(=O)NC[C@@H](O)CN2CCc3ccccc3C2)cccc1N1CCN(C2CC2)CC1 [Compound 278] | < 100 | < 100 | < 100 |  | 
N-(3-(3,4-dihydroisoquinolin-2(1H)-yl)-2-hydroxypropyl)-2-((1-(1-methylpiperidin-4-yl)-1H-indazol-5-yl)oxy)acetamide [Compound 71] | < 100 |  |  | 101 to 1000 | > 20000
N-(3-(3,4-dihydroisoquinolin-2(1H)-yl)-2-hydroxypropyl)-2-((1-(piperidin-4-yl)-1H-indazol-5-yl)oxy)acetamide [Compound 70] | < 100 |  |  | 101 to 1000 | > 20000
